# According to article PMC10215199 (Antioxidants, 2023):
# Structures can show the parent of a compound that is named as a salt.
# Experiments:
# recombinant human MAO-A = biological target: T1, recombinant human MAO-A (Homo sapiens, UniProt P21397); experiment: Monoamine oxidase-A inhibition assay (Amplex red fluorescence); format: biochemical; conditions: ±sem; for inhibition at 1 µM: single dose concentration of 1 µM, NI = no measured inhibition, read-out: % Inhibition MAO-A; for MAO-A % Inhibition / inhibition at 100 µM: single dose concentration of 100 µM; for MAO-A % Inhibition: 100 µM; for inhibition at 100 µM: read-out: MAO-A % Inhibition; for IC50: read-out: MAO-A IC50
# T1 sequence (P21397 1-527): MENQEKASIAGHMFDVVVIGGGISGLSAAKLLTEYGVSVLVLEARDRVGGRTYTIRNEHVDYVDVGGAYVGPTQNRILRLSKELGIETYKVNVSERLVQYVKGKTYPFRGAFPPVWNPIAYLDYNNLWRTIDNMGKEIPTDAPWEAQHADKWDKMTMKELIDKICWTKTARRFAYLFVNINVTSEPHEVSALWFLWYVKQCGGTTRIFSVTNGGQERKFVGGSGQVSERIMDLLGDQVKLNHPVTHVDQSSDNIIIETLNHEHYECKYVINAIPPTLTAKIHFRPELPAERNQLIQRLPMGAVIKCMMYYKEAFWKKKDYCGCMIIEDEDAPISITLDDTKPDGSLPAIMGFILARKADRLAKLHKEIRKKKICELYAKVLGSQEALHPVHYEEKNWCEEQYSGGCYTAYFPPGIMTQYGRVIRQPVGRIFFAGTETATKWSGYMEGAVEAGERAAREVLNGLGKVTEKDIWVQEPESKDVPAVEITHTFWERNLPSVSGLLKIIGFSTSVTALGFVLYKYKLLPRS
# Experimental: Two isoforms of MAOs, namely MAO-A and MAO-B, are expressed in CNS, showing different substrate specificity. Consequently, different pharmacological effects can be elicited depending on the inhibited MAO isoform. Therefore, the prepared O^6-aminoalkyl-hispidol analogs were evaluated against both recombinant human MAO-A and MAO-B isoforms following the well-established spectrophotometric method.
# 2. Biological evaluations
# 2.1. In vitro assay of human monoamine oxidases inhibition
# The MAO activity was quantified by measuring fluorescence intensity evoked by Amplex red reaction in which Amplex red reacts with hydrogen peroxide from the MAO reaction to produce highly fluorescent resorufin. The test compound in DMSO (final concentration: 1 nM – 10 μM or 10 nM – 100 μM ) and hMAO enzyme (Sigma Aldrich, St. Louis, MO, USA) in 50 mM sodium phosphate buffer (pH 7.4, final protein amount: ~1.25 μg of MAO-A/well and 2.5 μg of MAO-B/well) were loaded on 96-well black plate and incubated for 15 min at 37 °C. Then working solution of 200 μM Amplex Red (Cayman, Ann Arbor, MI, USA), 1 U/mL horseradish peroxidase (Sigma-Aldrich) and 1 mM substrate (p-tyramine for MAO-A, benzylamine for MAO-B, Sigma-Aldrich) in 50 mM sodium phosphate buffer (pH 7.4) was added and incubated for 20 min at 37 °C in the dark. The fluorescence was measured using a microplate reader (SpectraMax®i3, Molecular Device, San Jose, CA, USA) with an excitation at 545 nm and an emission at 590 nm. […]
# (§1) of compounds were determined as the mean ± S.E.M. in triplicate from the dose-response inhibition curves using SigmaPlot® 13.0.
# recombinant human MAO-B = biological target: T2, recombinant human MAO-B (Homo sapiens, UniProt P27338); experiment: biochemical; conditions: for inhibition at 10 µM: single dose concentration of 10 µM; for inhibition at 10 µM / IC50: ±sem; for IC50: five doses
# T2 construct: purchased Sigma Aldrich
# T2 sequence (P27338 1-520): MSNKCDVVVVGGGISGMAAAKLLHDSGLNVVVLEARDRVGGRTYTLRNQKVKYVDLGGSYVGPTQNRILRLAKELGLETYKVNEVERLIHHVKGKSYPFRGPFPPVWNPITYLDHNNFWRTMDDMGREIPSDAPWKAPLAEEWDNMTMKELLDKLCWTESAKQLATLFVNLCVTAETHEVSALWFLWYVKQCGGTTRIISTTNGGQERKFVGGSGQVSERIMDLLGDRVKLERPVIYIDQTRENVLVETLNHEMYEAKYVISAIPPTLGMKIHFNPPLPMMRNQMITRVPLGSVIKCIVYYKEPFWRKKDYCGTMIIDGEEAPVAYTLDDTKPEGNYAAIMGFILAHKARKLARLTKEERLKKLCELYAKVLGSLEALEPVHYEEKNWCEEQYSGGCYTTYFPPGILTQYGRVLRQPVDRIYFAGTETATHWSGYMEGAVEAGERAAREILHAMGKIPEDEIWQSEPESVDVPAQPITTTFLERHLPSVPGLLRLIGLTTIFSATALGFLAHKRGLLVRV
# [1] = biological target: T3, acetylcholinesterase (AChE) (Mus musculus, UniProt P21836); experiment: Acetylcholinesterase inhibition assay (Ellman, mouse whole brain homogenate); format: biochemical; conditions: ±SD
# T3 construct: The supernatant obtained was used as a source of enzyme for; from tissue; host or cells: whole brain of male ICR mice, supernatant of the homogenate
# T3 sequence (P21836 32-614): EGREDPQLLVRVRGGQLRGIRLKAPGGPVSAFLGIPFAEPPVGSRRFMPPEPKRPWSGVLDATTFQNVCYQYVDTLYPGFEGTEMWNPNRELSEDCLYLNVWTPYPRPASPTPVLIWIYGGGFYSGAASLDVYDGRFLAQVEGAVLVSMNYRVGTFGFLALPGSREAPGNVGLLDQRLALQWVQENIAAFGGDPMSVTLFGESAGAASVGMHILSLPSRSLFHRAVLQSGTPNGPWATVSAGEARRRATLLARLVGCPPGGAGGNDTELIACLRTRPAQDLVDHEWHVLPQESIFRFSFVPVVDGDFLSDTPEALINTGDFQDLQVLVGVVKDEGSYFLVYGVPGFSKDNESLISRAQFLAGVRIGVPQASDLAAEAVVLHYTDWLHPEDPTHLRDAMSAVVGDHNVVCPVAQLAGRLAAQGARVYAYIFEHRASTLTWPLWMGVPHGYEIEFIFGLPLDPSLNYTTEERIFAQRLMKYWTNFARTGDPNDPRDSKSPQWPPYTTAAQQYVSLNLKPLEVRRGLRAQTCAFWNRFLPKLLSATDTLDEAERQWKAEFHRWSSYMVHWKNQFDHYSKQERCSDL
# Experimental: as §1
# 2.2. In vitro acetylcholinesterase inhibition assay
# (Eyela, Japan) containing 50 volumes of phosphate buffer (pH 8.0, 0.1 M), and then centrifuged at 14,000 rpm for 20 min at 4 °C. The supernatant obtained was used as a source of enzyme for the assay. Each drug was initially dissolved in dimethyl sulfoxide (DMSO) and diluted to various concentrations immediately before use. An aliquot of diluted drug solution was then mixed wit h 640 μL of phosphate buffer (0.1 M, pH 8.0), 25 μL of buffered Ellman’s reagent (10 mM 5,5′- dithio-bis(2-nitrobenzoic acid) and 15 mM sodium bicarbonate), and the enzyme source (100 μL) and pre-incubated at room temperature for 10 min. Then 5 μL of acetylthiocholine iodide solution (75 mM) was added to this mixture and mixed. Absorbance was measured at 410 nm after 10 min for the reaction adding 5 μL of acetylthiocholine iodide solution (75 mM) and to the reaction mixtures (OPTIZEN 2120UV, Mecasys Co. Ltd, Korea).
Structure (SMILES),inhibition at 1 µM (recombinant human MAO-A) [%],inhibition at 10 µM (recombinant human MAO-B) [%],further results
COc1ccccc1/C=C1\Oc2cc(OCCN3CCCC3)ccc2C1=O [Compound 3ab],< 0,43 ± 0.55,
COc1ccccc1/C=C1\Oc2cc(OCCCN3CCCC3)ccc2C1=O [Compound 3ac],1.31 ± 0.82,32.27 ± 0.23,
CCN(CC)CCOc1ccc2c(c1)O/C(=C\c1cccc(OC)c1)C2=O [Compound 3ad],< 0,46.09 ± 0.11,
CCN(CC)CCCOc1ccc2c(c1)O/C(=C\c1cccc(OC)c1)C2=O [Compound 3ae],< 0,18.8 ± 0.45,
COc1cccc(/C=C2\Oc3cc(OCCN4CCCC4)ccc3C2=O)c1 [Compound 3af],< 0,39.1 ± 0.96,
COc1cccc(/C=C2\Oc3cc(OCCCN4CCCC4)ccc3C2=O)c1 [Compound 3ag],12.2 ± 1.05,16.99 ± 0.11,
COc1cccc(/C=C2\Oc3cc(OCCCN4CCCCC4)ccc3C2=O)c1 [Compound 3ah],< 0,18.1 ± 1.83,
COc1cccc(/C=C2\Oc3cc(OCCN4CCOCC4)ccc3C2=O)c1 [Compound 3ai],4.1 ± 0.48,27.9 ± 0.37,
COc1ccc(/C=C2\Oc3cc(OCCN4CCCC4)ccc3C2=O)cc1 [Compound 3aj],3.26 ± 0.75,39.26 ± 0.03,
COc1ccc(/C=C2\Oc3cc(OCCCN4CCCC4)ccc3C2=O)cc1 [Compound 3ak],9.83 ± 0.64,45.64 ± 0.08,
COc1ccc(/C=C2\Oc3cc(OCCCCN4CCCC4)ccc3C2=O)cc1 [Compound 3al],< 0,49.8 ± 0.02,MAO-A % Inhibition (recombinant human MAO-A): 14.89 ± 3.46%; inhibition at 100 µM (recombinant human MAO-A): ~15%; IC50 (recombinant human MAO-A): > 100 µM; MAO-B Selectivity Index (recombinant human MAO-B; calculated from MAO-A and MAO-B IC50 values): >12; IC50 (recombinant human MAO-B): 8.65 ± 0.196 µM; IC50 [1]: 1.42 ± 0.09 µM
COc1ccc(/C=C2\Oc3cc(OCCN4CCCCC4)ccc3C2=O)cc1 [Compound 3am],0.92 ± 0.83,20.6 ± 0.79,
COc1ccc(/C=C2\Oc3cc(OCCN4CCCC4)ccc3C2=O)cc1OC [Compound 3an],< 0,48.1 ± 1.46,
COc1ccc(/C=C2\Oc3cc(OCCCN4CCCC4)ccc3C2=O)cc1OC [Compound 3ao],< 0,39.2 ± 0.58,
COc1ccc(/C=C2\Oc3cc(OCCN4CCCCC4)ccc3C2=O)cc1OC [Compound 3ap],< 0,50.81 ± 0.44,MAO-A % Inhibition (recombinant human MAO-A): 22.52 ± 0.04%; inhibition at 100 µM (recombinant human MAO-A): ~23%; IC50 (recombinant human MAO-A): > 100 µM; IC50 (recombinant human MAO-B): 10.18 ± 0.099 µM
COc1ccc(/C=C2\Oc3cc(OCCCN4CCCCC4)ccc3C2=O)cc1OC [Compound 3aq],< 0,4.51 ± 1.3,
COc1ccc(/C=C2\Oc3cc(OCCCCN4CCCCC4)ccc3C2=O)cc1OC [Compound 3ar],< 0,3.89 ± 1.63,
"COc1ccc(/C=C2\Oc3cc(OCCCCCN4CCCCC4)ccc3C2=O)cc1OC [Compound 3as, (Z)-2-(3,4-Dimethoxybenzylidene)-6-(5-(piperidin-1-yl)pentoxy)benzofuran-3(2H)-one hydrochloride]",< 0,4.76 ± 1.91,
COc1cc(/C=C2\Oc3cc(OCCN4CCCC4)ccc3C2=O)cc(OC)c1 [Compound 3at],< 0,36.8 ± 0.44,
COc1cc(/C=C2\Oc3cc(OCCCN4CCCC4)ccc3C2=O)cc(OC)c1 [Compound 3au],< 0,21.2 ± 0.3,
COc1cccc(/C=C2\Oc3cc(OCCN4CCCC4)ccc3C2=O)c1OC [Compound 3av],12.6 ± 0.32,2.61 ± 1.78,
COc1ccc(/C=C2\Oc3cc(OCCN4CCCC4)ccc3C2=O)c(OC)c1 [Compound 3aw],12.7 ± 0.54,41.6 ± 1.03,
COc1ccc(OC)c(/C=C2\Oc3cc(OCCN4CCCC4)ccc3C2=O)c1 [Compound 3ax],< 0,65.05 ± 0.43,inhibition at 100 µM (recombinant human MAO-A): ~28%; IC50 (recombinant human MAO-A): > 100 µM; IC50 (recombinant human MAO-B): 3.16 ± 0.036 µM
COc1cccc(/C=C2\Oc3cc(OCCCN4CCCC4)ccc3C2=O)c1OC [Compound 3ay],< 0,4.37 ± 0.9,
COc1ccc(/C=C2\Oc3cc(OCCCN4CCCC4)ccc3C2=O)c(OC)c1 [Compound 3az],< 0,35.87 ± 0.17,
COc1ccc(OC)c(/C=C2\Oc3cc(OCCCN4CCCC4)ccc3C2=O)c1 [Compound 3ba],< 0,20.3 ± 0.49,
COc1ccc(/C=C2\Oc3cc(OCCN4CCCC4)ccc3C2=O)c(OC)c1OC [Compound 3bb],< 0,23.9 ± 0.81,
COc1cc(/C=C2\Oc3cc(OCCN4CCCCC4)ccc3C2=O)cc(OC)c1OC [Compound 3bd],< 0,27.9 ± 0.36,
